Measured values from paper PMC11859928, “Design, Synthesis, and Antiproliferative Activity of Novel Indole/1,2,4-Triazole Hybrids as Tubulin Polymerization Inhibitors” (Pharmaceuticals, 2025).
Read-outs that look alike come from different tables or passages of the source.

Legend:
SK-MEL-5 = test: NCI five-dose assay; type: cell-based, human; settings: for CC50 / GI50: Homo sapiens; for CC50: read-out: LC50 (the source's name); for GI50: read-out: GI50 Conc. per Cell Lines
SF-539 = test: NCI one-dose assay; type: cell-based; settings: Homo sapiens, SF-539, CNS cancer, read-out: Cell growth inhibition %
U251 = test: NCI one-dose assay; type: cell-based; settings: Homo sapiens, U-251, U251, CNS cancer, read-out: Cell growth inhibition %
LOX IMVI = test: NCI one-dose assay; type: cell-based; settings: Homo sapiens, Melanoma, read-out: Cell growth inhibition %
A549/ATCC = test: NCI one-dose assay; type: cell-based; settings: Homo sapiens, Non-small cell lung cancer, read-out: Cell growth inhibition %
SF-295 = test: NCI one-dose assay; type: cell-based; settings: Homo sapiens, SF-295, CNS cancer, read-out: Cell growth inhibition %
T-47D = test: NCI one-dose assay; type: cell-based; settings: Homo sapiens, T47D, Breast cancer, read-out: Cell growth inhibition %
EKVX = test: NCI one-dose assay; type: cell-based; settings: Homo sapiens, Non-small cell lung cancer, read-out: Cell growth inhibition %
HOP-62 = test: NCI one-dose assay; type: cell-based; settings: Homo sapiens, HOP-62, Non-small cell lung cancer, read-out: Cell growth inhibition %
NCI-H226 = test: NCI one-dose assay; type: cell-based; settings: Homo sapiens, NCI-H226, Non-small cell lung cancer, read-out: Cell growth inhibition %
SF-268 = test: NCI one-dose assay; type: cell-based; settings: Homo sapiens, SF-268, CNS cancer, read-out: Cell growth inhibition %
SNB-19 = test: NCI one-dose assay; type: cell-based; settings: Homo sapiens, SNB-19, CNS cancer, read-out: Cell growth inhibition %
HS 578 T = test: NCI one-dose assay; type: cell-based; settings: Homo sapiens, Breast cancer, read-out: Cell growth inhibition %
SK-MEL-28 = test: NCI one-dose assay; type: cell-based; settings: Homo sapiens, SK-MEL-28, Melanoma, read-out: Cell growth inhibition %
SR = test: NCI one-dose assay; type: cell-based; settings: Homo sapiens, Leukemia, read-out: Cell growth inhibition %
IGROV1 = test: NCI one-dose assay; type: cell-based; settings: Homo sapiens, IGROV-1, IGROV1, Ovarian cancer, read-out: Cell growth inhibition %
OVCAR-3 = test: NCI one-dose assay; type: cell-based; settings: Homo sapiens, OVCAR-3, Ovarian cancer, read-out: Cell growth inhibition %
MDA-MB-435 = test: NCI one-dose assay; type: cell-based; settings: Homo sapiens, MDA-MB-435, Melanoma, read-out: Cell growth inhibition %
MCF7 [1] = test: NCI one-dose assay; type: cell-based; settings: Homo sapiens, MCF7, Breast cancer, read-out: Cell growth inhibition %
NCI-H522 [2] = test: NCI one-dose assay; type: cell-based; settings: Homo sapiens, NCI-H522, Non-small cell lung cancer, read-out: Cell growth inhibition %
A498 = test: NCI one-dose assay; type: cell-based, human; settings: for inhibition at 10 µM: Homo sapiens, A498, A498, Renal cancer, read-out: Cell growth inhibition %
HOP-92 = test: NCI one-dose assay; type: cell-based, human; settings: Homo sapiens, HOP-92, HOP-92, Non-small cell lung cancer, read-out: Cell growth inhibition %
786-0 = test: NCI one-dose assay; type: cell-based, human; settings: for inhibition at 10 µM: Homo sapiens, 786-0, 786-0, Renal cancer, read-out: Cell growth inhibition %
UO-31 = test: NCI one-dose assay; type: cell-based, human; settings: Homo sapiens, UO-31, UO-31, Renal cancer, read-out: Cell growth inhibition %
HL-60(TB) = test: NCI five-dose assay; type: cell-based, human; settings: for CC50 / GI50: Homo sapiens; for CC50: read-out: LC50 (the source's name); for GI50: read-out: GI50 Conc. per Cell Lines
PC-3 = test: NCI five-dose assay; type: cell-based, human; settings: for CC50 / GI50: Homo sapiens; for CC50: read-out: LC50 (the source's name); for GI50: read-out: GI50 Conc. per Cell Lines
NCI-H522 [3] = test: NCI five-dose assay; type: cell-based, human; settings: for CC50 / GI50: Homo sapiens; for CC50: read-out: LC50 (the source's name); for GI50: read-out: GI50 Conc. per Cell Lines
NCI 60 cell lines = test: NCI one-dose assay, full panel; type: cell-based, human; settings: Homo sapiens, 60 cell, read-out: cell growth inhibition percentage, range
CNS cancer subpanel = test: NCI five-dose assay, subpanel mean; type: cell-based, human; settings: for GI50: Homo sapiens, read-out: GI50 Subpanel MID b
MCF7 [4] = test: NCI five-dose assay; type: cell-based, human; settings: for LC50 / GI50: Homo sapiens; for GI50: read-out: GI50 Conc. per Cell Lines
[5] = NCI-H522, Non-small cell lung cancer

O/N=C(\CSc1nnc(-c2c[nH]c3ccccc23)n1-c1ccccc1)c1ccc(Br)cc1 [Compound 7i, (Z)-2-((5-(1H-Indol-3-yl)-4-phenyl-4H-1,2,4-triazol-3-yl)thio)-1-(4-bromophenyl) Ethanone Oxime]
CC50 (SK-MEL-5; SK-MEL-5, Melanoma, 48 h): 35.8 µM | GI50 (SK-MEL-5; SK-MEL-5, Melanoma): 3.55 µM | TGI Conc. per Cell Lines (SK-MEL-5; SK-MEL-5, Melanoma): 12.80 µM | inhibition at 10 µM (SF-539): 165% | inhibition at 10 µM (U251): 90.3% | inhibition at 10 µM (LOX IMVI): 187% | inhibition at 10 µM (A549/ATCC): 118% | inhibition at 10 µM (SF-295): 115% | inhibition at 10 µM (T-47D): 94% | inhibition at 10 µM (EKVX): 163% | inhibition at 10 µM (HOP-62): 155% | inhibition at 10 µM (NCI-H226): 93.7% | inhibition at 10 µM (SF-268): 156% | inhibition at 10 µM (SNB-19): 109% | inhibition at 10 µM (HS 578 T): 139% | inhibition at 10 µM (SK-MEL-28): 126% | inhibition at 10 µM (SR): 98.7% | inhibition at 10 µM (IGROV1): 165% | inhibition at 10 µM (OVCAR-3): 99.3% | inhibition at 10 µM (MDA-MB-435): 200% | inhibition at 10 µM (MCF7 [1]): 143% | inhibition at 10 µM (NCI-H522 [2]): 130% | Cell growth inhibition % (A498; A498, Renal cancer, 10 µM): 37.85% | inhibition at 10 µM (A498): 38% | inhibition at 10 µM (HOP-92): 111% | Cell growth inhibition % (786-0; 786-0, Renal cancer, 10 µM): 65.25% | inhibition at 10 µM (786-0): 65% | inhibition at 10 µM (UO-31): 96.4% | CC50 (HL-60(TB); Leukemia, 48 h): > 100 µM | GI50 (HL-60(TB); Leukemia): 1.92 µM | TGI Conc. per Cell Lines (HL-60(TB); Leukemia): 4.55 µM | CC50 (PC-3; PC-3, Prostate cancer, 48 h): > 100 µM | GI50 (PC-3; PC-3, Prostate cancer): 2.15 µM | TGI Conc. per Cell Lines (PC-3; PC-3, Prostate cancer): 4.96 µM | CC50 (NCI-H522 [3]; NCI-H522, Non-small cell lung cancer, 48 h): 61.6 µM | GI50 (NCI-H522 [3]; [5]): 2.52 µM | TGI Conc. per Cell Lines (NCI-H522 [3]; [5]): 7.70 µM | inhibition at 10 µM (NCI 60 cell lines; eight cell lines): 86 to 99% | inhibition at 10 µM (NCI 60 cell lines; forty-nine cell lines with complete cell death): 106 to 200% | GI50 (CNS cancer subpanel; average sensitivity of all cell lines of the CNS cancer subpanel): 3.15 µM | LC50 (MCF7 [4]; MCF7, Breast cancer, 48 h): 63.6 µM | GI50 (MCF7 [4]; MCF7, Breast cancer): 3.49 µM | TGI Conc. per Cell Lines (MCF7 [4]; MCF7, Breast cancer): 15.3 µM

O/N=C(\CSc1nnc(-c2c[nH]c3ccccc23)n1-c1ccccc1)c1ccc(Cl)cc1 [Compound 7j, (Z)-2-((5-(1H-Indol-3-yl)-4-phenyl-4H-1,2,4-triazol-3-yl)thio)-1-(4-chlorophenyl) Ethanone Oxime]
GI50 (SK-MEL-5; SK-MEL-5, five dose levels): 3.87 µM | CC50 (SK-MEL-5; SK-MEL-5, five dose levels): 38.7 µM | TGI Conc. per Cell Lines (SK-MEL-5; SK-MEL-5, five dose levels): 19.5 µM | inhibition at 10 µM (SF-539): 70.5% | inhibition at 10 µM (U251): 69.5% | inhibition at 10 µM (LOX IMVI): 189% | inhibition at 10 µM (A549/ATCC): 78.5% | inhibition at 10 µM (SF-295): 85.9% | inhibition at 10 µM (T-47D): 96.1% | inhibition at 10 µM (EKVX): 98% | inhibition at 10 µM (HOP-62): 164% | inhibition at 10 µM (NCI-H226): 85.7% | inhibition at 10 µM (SF-268): 149% | inhibition at 10 µM (SNB-19): 82.6% | inhibition at 10 µM (HS 578 T): 132% | inhibition at 10 µM (SK-MEL-28): 78.8% | inhibition at 10 µM (SR): 87.2% | inhibition at 10 µM (IGROV1): 134% | inhibition at 10 µM (OVCAR-3): 65.8% | inhibition at 10 µM (MDA-MB-435): 200% | inhibition at 10 µM (MCF7 [1]): 96.7% | inhibition at 10 µM (NCI-H522 [2]): 87.6% | inhibition at 10 µM (A498): 16.3% | inhibition at 10 µM (HOP-92): 108% | inhibition at 10 µM (786-0): 65.9% | inhibition at 10 µM (UO-31): 65.6% | GI50 (HL-60(TB); five dose levels): 2.17 µM | CC50 (HL-60(TB); five dose levels): > 100 µM | TGI Conc. per Cell Lines (HL-60(TB); five dose levels): 6.34 µM | GI50 (PC-3; PC-3, five dose levels): 2.31 µM | CC50 (PC-3; PC-3, five dose levels): > 100 µM | TGI Conc. per Cell Lines (PC-3; PC-3, five dose levels): 7.29 µM | GI50 (NCI-H522 [3]; NCI-H522, five dose levels): 3.11 µM | CC50 (NCI-H522 [3]; NCI-H522, five dose levels): 81.7 µM | TGI Conc. per Cell Lines (NCI-H522 [3]; NCI-H522, five dose levels): 12.5 µM | inhibition at 10 µM (NCI 60 cell lines; six cell lines with moderate activity): 52 to 66% | inhibition at 10 µM (NCI 60 cell lines; twenty-eight cell lines with total cell death): 102 to 200% | inhibition at 10 µM (NCI 60 cell lines; twenty-four cell lines): 69.5 to 99.3% | GI50 Selectivity Ratio (MID a/MID b) (CNS cancer subpanel; CNS cancer subpanel): 0.763 | GI50 (CNS cancer subpanel; CNS cancer, average sensitivity of all cell lines of the subpanel): 4.78 µM | LC50 (MCF7 [4]; MCF7, five dose levels): 22.5 µM | GI50 (MCF7 [4]; MCF7, five dose levels): 3.63 µM | TGI Conc. per Cell Lines (MCF7 [4]; MCF7, five dose levels): 21.6 µM
